Measurements from patent US20090099195A1 (ASTRAZENECA AB, priority 2007, published 2009).

target: T1, hP2X3 (human Purinergic P2X receptors subtype 3), clone B (Homo sapiens, UniProt P56373); assay: hP2X3 FLIPR calcium (Fluo-4) antagonist assay, clone B; details: Human P2X3 FLIPR Clone B IC50 (nM), RLE cells expressing hP2X3 clone B (NM_002559); agonist 500 nM α,β-methylene-ATP
T1 sequence (P56373 1-397): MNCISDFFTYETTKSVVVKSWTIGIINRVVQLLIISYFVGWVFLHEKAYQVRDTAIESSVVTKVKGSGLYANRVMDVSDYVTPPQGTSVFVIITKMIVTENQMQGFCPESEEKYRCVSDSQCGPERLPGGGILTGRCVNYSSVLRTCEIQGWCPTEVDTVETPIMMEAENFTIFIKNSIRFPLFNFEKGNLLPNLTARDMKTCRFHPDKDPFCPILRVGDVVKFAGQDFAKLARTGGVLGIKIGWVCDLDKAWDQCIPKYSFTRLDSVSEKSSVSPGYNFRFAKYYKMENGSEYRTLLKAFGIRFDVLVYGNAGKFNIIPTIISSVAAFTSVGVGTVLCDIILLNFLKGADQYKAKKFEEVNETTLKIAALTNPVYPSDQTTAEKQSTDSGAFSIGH

SMILES	IC50
CC(C)N1Cc2c(NCc3cnc4ccccc4c3)nc(N3CCN(S(C)(=O)=O)CC3)nc2C1=O [Example 329, 6-(1-methylethyl)-2-[4-(methylsulfonyl)piperazin-1-yl]-4-[(quinolin-3-ylmethyl)amino]-5,6-dihydro-7H-pyrrolo[3,4-d]pyrimidin-7-one]	8900 nM
CCC(=O)N1CCN(c2nc(NC(C)(C)Cc3ccc(Cl)cc3)c3c(n2)C(=O)N(C(C)C)C3)CC1 [Example 71, 4-{[2-(4-chlorophenyl)-1,1-dimethylethyl]amino}-6-isopropyl-2-(4-propionylpiperazin-1-yl)-5,6-dihydro-7H-pyrrolo[3,4-d]pyrimidin-7-one]	130 nM
CC(=O)NCCNc1nc(NC(c2ccccc2)c2ccccc2)c2c(n1)C(=O)N(C(C)C)C2 [Example 93, N-{2-[4-(Benzhydryl-amino)-6-isopropyl-7-oxo-6,7-dihydro-5H-pyrrolo[3,4-d]pyrimidin-2-ylamino]-ethyl}-acetamide]	290 nM
COc1ccccc1CC1CCCN1c1nc(N2CCN(C(C)=O)CC2)nc2c1CN(C(C)C)C2=O (stereo not drawn) [Example 290, 2-(4-acetylpiperazin-1-yl)-6-isopropyl-4-[2-[(2-methoxyphenyl)methyl]pyrrolidin-1-yl]-5H-pyrrolo[3,4-d]pyrimidin-7-one]	2000 nM
CC(=O)N1CCN(c2nc(NCc3nc(-c4ccccc4)no3)c3c(n2)C(=O)N(C(C)C)C3)CC1 [Example 145, 4-(4-acetylpiperazin-1-yl)-2-[(3-phenyl-1,2,4-oxadiazol-5-yl)methylamino]-8-propan-2-yl-3,5,8-triazabicyclo[4.3.0]nona-1,3,5-trien-7-one]	3200 nM
CC(=O)N1CCCN(c2nc(NC(C)(C)Cc3ccc(Cl)cc3)c3c(n2)C(=O)N(C(C)C)C3)CC1 [Example 65, 2-(4-acetyl-1,4-diazepan-1-yl)-4-{[2-(4-chlorophenyl)-1,1-dimethylethyl]amino}-6-isopropyl-5,6-dihydro-7H-pyrrolo[3,4-d]pyrimidin-7-one]	420 nM

The remaining compounds from weak to strong by IC50, led by results:

IC50	SMILES
9000 nM	CC(=O)N1CCN(c2nc3c(c(N(C)Cc4ccc(Cl)cc4)n2)CN(C(C)C)C3=O)CC1 [Example 111, 2-(4-acetylpiperazin-1-yl)-4-[(4-chlorobenzyl)(methyl)amino]-6-isopropyl-5,6-dihydro-7H-pyrrolo[3,4-d]pyrimidin-7-one]
2700 nM	CC(=O)N1CCN(c2nc3c(c(N(Cc4ccccc4)CC4CC4)n2)CN(C(C)C)C3=O)CC1 [Example 51, 2-(4-acetylpiperazin-1-yl)-4-[benzyl(cyclopropylmethyl)amino]-6-isopropyl-5,6-dihydro-7H-pyrrolo[3,4-d]pyrimidin-7-one]
1800 nM	CC(=O)N1CCN(c2nc(NC(Cc3ccccc3)c3ccccc3)c3c(n2)C(=O)N(C(C)C)C3)CC1 (stereo not drawn) [Example 88, 2-(4-Acetyl-piperazin-1-yl)-4-(1,2-diphenyl-ethylamino)-6-isopropyl-5,6-dihydro-pyrrolo[3,4-d]pyrimidin-7-one]
230 nM	CC(C)N1Cc2c(NC(c3ccccc3)c3ccccc3)nc(NCCN(C)C)nc2C1=O [Example 97, 4-(Benzhydryl-amino)-2-(2-dimethylamino-ethylamino)-6-isopropyl-5,6-dihydro-pyrrolo[3,4-d]pyrimidin-7-one]
220 nM	CC(=O)N1CCN(c2nc(NC(C)c3nc(-c4ccccc4)no3)c3c(n2)C(=O)N(C(C)C)C3)CC1 (stereo not drawn) [Example 13, 2-(4-acetylpiperazin-1-yl)-6-isopropyl-4-{[1-(3-phenyl-1,2,4-oxadiazol-5-yl)ethyl]amino}-5,6-dihydro-7H-pyrrolo[3,4-d]pyrimidin-7-one]
42 nM	CCC(C)N1Cc2c(NCc3cnc4ccccc4c3)nc(N3CCN(C(C)=O)CC3)nc2C1=O (single isomer, unassigned; (-)) [Example 309, (−)-2-(4-acetylpiperazin-1-yl)-4-(3-quinolylmethylamino)-6-sec-butyl-5H-pyrrolo[3,4-d]pyrimidin-7-one]
